The values that follow come from patent US20240208992A1, “MACROCYCLES AS CFTR MODULATORS” (Idorsia Pharmaceuticals Ltd, priority 2021, published 2024).

pEC50: −log10 of the molar value.

In the assay the target is human F508del-CFTR (Homo sapiens, UniProt P13569, DEL508-508). The assay can be described thus: F508del-CFTR cell surface expression (corrector activity), DiscoveRx ß-galactosidase complementation chemiluminescence assay in recombinant U2OS cell line.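 For all read-outs here: U2OS cells co-expressing ProLink-tagged F508del-CFTR and a membrane-anchored enzyme acceptor, where more surface CFTR restores β-galactosidase activity measured by chemiluminescence.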 To be noted: U2OS cell line, 16h compound incubation; for pEC50: EC50, F508del-CFTR cell surface expression, geomean values; for Emax: U2OS, in relation to the Emax of the corrector lumacaftor (=100%), arithmetic mean values.

By pEC50 is commonly meant the EC50 on a negative log10 scale, so that one unit is a factor of ten. Broadly, the Emax is the greatest response seen or fitted, relative to the assay's reference.

Chain of human F508del-CFTR (P13569 with tags, fused parts or gaps DEL508-508): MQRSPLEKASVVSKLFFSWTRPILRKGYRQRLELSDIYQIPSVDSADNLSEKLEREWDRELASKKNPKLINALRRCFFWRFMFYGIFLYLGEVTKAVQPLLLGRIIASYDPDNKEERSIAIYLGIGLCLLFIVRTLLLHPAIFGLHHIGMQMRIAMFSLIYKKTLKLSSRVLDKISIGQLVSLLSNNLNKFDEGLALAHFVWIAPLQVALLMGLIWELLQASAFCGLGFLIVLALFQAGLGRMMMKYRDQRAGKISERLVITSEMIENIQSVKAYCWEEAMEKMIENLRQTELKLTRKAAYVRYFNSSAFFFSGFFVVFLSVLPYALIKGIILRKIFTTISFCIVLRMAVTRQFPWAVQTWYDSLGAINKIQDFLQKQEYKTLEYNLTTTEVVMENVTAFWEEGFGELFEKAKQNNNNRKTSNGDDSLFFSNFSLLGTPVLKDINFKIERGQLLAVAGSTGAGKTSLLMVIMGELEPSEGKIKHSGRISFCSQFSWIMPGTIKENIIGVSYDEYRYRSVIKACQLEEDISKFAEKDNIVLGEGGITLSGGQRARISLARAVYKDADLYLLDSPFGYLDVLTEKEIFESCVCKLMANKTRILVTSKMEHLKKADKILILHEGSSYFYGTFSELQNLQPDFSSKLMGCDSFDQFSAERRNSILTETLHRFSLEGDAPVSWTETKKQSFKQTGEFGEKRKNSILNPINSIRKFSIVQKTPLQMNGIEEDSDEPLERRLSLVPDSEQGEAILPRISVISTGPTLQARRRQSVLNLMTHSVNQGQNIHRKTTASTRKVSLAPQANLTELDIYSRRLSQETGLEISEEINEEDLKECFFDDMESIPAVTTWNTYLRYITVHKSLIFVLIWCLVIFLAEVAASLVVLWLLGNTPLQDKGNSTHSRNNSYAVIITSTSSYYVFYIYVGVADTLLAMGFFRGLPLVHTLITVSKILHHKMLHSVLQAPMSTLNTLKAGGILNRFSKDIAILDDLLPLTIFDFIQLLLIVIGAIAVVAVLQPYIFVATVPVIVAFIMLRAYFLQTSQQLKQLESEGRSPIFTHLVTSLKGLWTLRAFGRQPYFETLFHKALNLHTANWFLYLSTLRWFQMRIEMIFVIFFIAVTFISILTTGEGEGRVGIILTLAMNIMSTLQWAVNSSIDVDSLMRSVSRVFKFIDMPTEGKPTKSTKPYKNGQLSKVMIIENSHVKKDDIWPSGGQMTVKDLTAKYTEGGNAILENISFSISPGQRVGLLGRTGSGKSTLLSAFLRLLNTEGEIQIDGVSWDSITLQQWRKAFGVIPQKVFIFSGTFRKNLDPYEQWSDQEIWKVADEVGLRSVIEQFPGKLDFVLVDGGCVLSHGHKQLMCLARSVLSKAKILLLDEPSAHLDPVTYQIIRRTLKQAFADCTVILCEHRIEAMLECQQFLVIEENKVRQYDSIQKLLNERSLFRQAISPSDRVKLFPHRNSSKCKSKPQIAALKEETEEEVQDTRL

Turning to `CC(C)C[C@H]1C(=O)N(C)CC(=O)N[C@H](Cc2ccccc2)COc2ccc(F)cc2C(=O)N[C@H](C(=O)NCCc2ccc3c(c2)OCO3)CC(=O)N1C` [Example 234, (3R,9S,13S)-N-(2-(benzo[d][1,3]dioxol-5-yl)ethyl)-3-benzyl-17-fluoro-9-isobutyl-7,10-dimethyl-5,8,11,15-tetraoxo-2,3,4,5,6,7,8,9,10,11,12,13,14,15-tetradecahydrobenzo[p][1]oxa[4,7,10,14]tetraazacycloheptadecine-13-carboxamide], the pEC50 is 6.33 and the Emax was found to be 110%.

For `Cc1cccc2c1C(=O)N[C@H](C(=O)NCCc1ccc3c(c1)OCO3)CC(=O)N(C)[C@@H](CC(C)C)C(=O)N(C)CC(=O)N[C@H](Cc1ccccc1)CO2` [Example 235, (3R,9S,13S)-N-(2-(benzo[d][1,3]dioxol-5-yl)ethyl)-3-benzyl-9-isobutyl-7,10,16-trimethyl-5,8,11,15-tetraoxo-2,3,4,5,6,7,8,9,10,11,12,13,14,15-tetradecahydrobenzo[p][1]oxa[4,7,10,14]tetraazacycloheptadecine-13-carboxamide], the pEC50 is 6.08 and the Emax is 117%.

Regarding `CC(C)C[C@H]1C(=O)N(C)CC(=O)N[C@H](Cc2ccccc2)COc2cc3ccccc3cc2C(=O)N[C@H](C(=O)NCCc2ccc3c(c2)OCO3)CC(=O)N1C` [Example 236, (3R,9S,13S)-N-(2-(benzo[d][1,3]dioxol-5-yl)ethyl)-3-benzyl-9-isobutyl-7,10-dimethyl-5,8,11,15-tetraoxo-2,3,4,5,6,7,8,9,10,11,12,13,14,15-tetradecahydronaphtho[2,3-p][1]oxa[4,7,10,14]tetraazacycloheptadecine-13-carboxamide], the pEC50 was 6.36 and the Emax worked out at 126%.

Turning to `COc1cccc(CCNC(=O)[C@@H]2CC(=O)N(C)[C@@H](CC(C)C)C(=O)N(C)CC(=O)N[C@H](Cc3ccccc3)COc3ccc(Cl)cc3C(=O)N2)c1` [Example 237, (3R,9S,13S)-3-benzyl-17-chloro-9-isobutyl-N-(3-methoxyphenethyl)-7,10-dimethyl-5,8,11,15-tetraoxo-2,3,4,5,6,7,8,9,10,11,12,13,14,15-tetradecahydrobenzo[p][1]oxa[4,7,10,14]tetraazacycloheptadecine-13-carboxamide], the negative-log EC50 (pEC50) is 6.52 and the Emax worked out at 128%.

Consider `COc1cccc(CCNC(=O)[C@@H]2CC(=O)N(C)[C@@H](CC(C)C)C(=O)N(C)CC(=O)N[C@H](Cc3ccccc3)COc3cc4ccccc4cc3C(=O)N2)c1` [Example 238, (3R,9S,13S)-3-benzyl-9-isobutyl-N-(3-methoxyphenethyl)-7,10-dimethyl-5,8,11,15-tetraoxo-2,3,4,5,6,7,8,9,10,11,12,13,14,15-tetradecahydronaphtho[2,3-p][1]oxa[4,7,10,14]tetraazacycloheptadecine-13-carboxamide], for which the negative logarithm of the EC50 (pEC50) was 6.43 and the Emax amounted to 153%.

As to `CCc1ccc(CCNC(=O)[C@@H]2CC(=O)N(C)[C@@H](CC(C)C)C(=O)N(C)CC(=O)N[C@H](Cc3ccccc3)COc3cccc(OC)c3C(=O)N2)cc1` [Example 239, (3R,9S,13S)-3-benzyl-N-(4-ethylphenethyl)-9-isobutyl-16-methoxy-7,10-dimethyl-5,8,11,15-tetraoxo-2,3,4,5,6,7,8,9,10,11,12,13,14,15-tetradecahydrobenzo[p][1]oxa[4,7,10,14]tetraazacycloheptadecine-13-carboxamide], the pEC50 is 6.29 and the maximal response (Emax) came out at 142%.

`COc1cccc(CCNC(=O)[C@@H]2CC(=O)N(C)[C@@H](CC(C)C)C(=O)N(C)CC(=O)N[C@H](Cc3ccccc3)COc3ccsc3C(=O)N2)c1` [Example 240, (6R,12S,16S)-6-benzyl-12-isobutyl-N-(3-methoxyphenethyl)-10,13-dimethyl-8,11,14,18-tetraoxo-5,6,7,8,9,10,11,12,13,14,15,16,17,18-tetradecahydrothieno[2,3-p][1]oxa[4,7,10,14]tetraazacycloheptadecine-16-carboxamide]: the pEC50 was 5.90 and the Emax came to 77%.

Turning to `COc1cccc(CCNC(=O)[C@@H]2CC(=O)N(C)[C@@H](CC(C)C)C(=O)N(C)CC(=O)N[C@H](Cc3ccccc3)COc3nc(C)sc3C(=O)N2)c1` [Example 241, (6R,12S,16S)-6-benzyl-12-isobutyl-N-(3-methoxyphenethyl)-2,10,13-trimethyl-8,11,14,18-tetraoxo-5,6,7,8,9,10,11,12,13,14,15,16,17,18-tetradecahydrothiazolo[5,4-p][1]oxa[4,7,10,14]tetraazacycloheptadecine-16-carboxamide], the pEC50 is 5.78 and the Emax was 92%.

Regarding `[2H]C([2H])([2H])Oc1cccc2c1C(=O)N[C@H](C(=O)NCCc1ccc3c(c1)OCO3)CC(=O)N(C)[C@@H](CC(C)C)C(=O)N(CCC1CCCCC1)CC(=O)N[C@H](Cc1ccccc1)CO2` [Example 242, (3R,9S,13S)-N-(2-(benzo[d][1,3]dioxol-5-yl)ethyl)-3-benzyl-7-(2-cyclohexylethyl)-9-isobutyl-16-(methoxy-d3)-10-methyl-5,8,11,15-tetraoxo-2,3,4,5,6,7,8,9,10,11,12,13,14,15-tetradecahydrobenzo[p][1]oxa[4,7,10,14]tetraazacycloheptadecine-13-carboxamide], the pEC50 is 6.75 and the Emax came to 232%.

For the compound `[2H]C([2H])([2H])Oc1cccc2c1C(=O)N[C@H](C(=O)NCCc1cccc(OC)c1)CC(=O)N(C)[C@@H](CC(C)C)C(=O)N(CCC1CCCCC1)CC(=O)N[C@H](Cc1ccccc1)CO2` [Example 243, (3R,9S,13S)-3-benzyl-7-(2-cyclohexylethyl)-9-isobutyl-16-(methoxy-d3)-N-(3-methoxyphenethyl)-10-methyl-5,8,11,15-tetraoxo-2,3,4,5,6,7,8,9,10,11,12,13,14,15-tetradecahydrobenzo[p][1]oxa[4,7,10,14]tetraazacycloheptadecine-13-carboxamide], the pEC50 was 6.74 and the Emax came to 232%.

As to `[2H]C([2H])([2H])Oc1cccc(CCNC(=O)[C@@H]2CC(=O)N(C)[C@@H](CC(C)C)C(=O)N(CCC3CCCCC3)CC(=O)N[C@H](Cc3ccccc3)COc3cccc(OC([2H])([2H])[2H])c3C(=O)N2)c1` [Example 244, (3R,9S,13S)-3-benzyl-7-(2-cyclohexylethyl)-9-isobutyl-16-(methoxy-d3)-N-(3-(methoxy-d3)phenethyl)-10-methyl-5,8,11,15-tetraoxo-2,3,4,5,6,7,8,9,10,11,12,13,14,15-tetradecahydrobenzo[p][1]oxa[4,7,10,14]tetraazacycloheptadecine-13-carboxamide], the negative-log EC50 (pEC50) is 6.75 and the Emax stood at 239%.

`COc1ccc2c(c1)C(=O)N[C@H](C(=O)NCCc1ccc3c(c1)OCCC3)CC(=O)N(C)[C@@H](CC(C)C)C(=O)N(C)CC(=O)N[C@H](Cc1ccccc1)CO2` [Example 245, (3R,9S,13S)-3-benzyl-N-(2-(chroman-7-yl)ethyl)-9-isobutyl-17-methoxy-7,10-dimethyl-5,8,11,15-tetraoxo-2,3,4,5,6,7,8,9,10,11,12,13,14,15-tetradecahydrobenzo[p][1]oxa[4,7,10,14]tetraazacycloheptadecine-13-carboxamide]: the pEC50 was 6.59 and the Emax worked out at 174%.
